{
  "source": "paper PMC5391474",
  "about": "“Investigation of the Role of Protein Kinase D in Human Rhinovirus Replication” (Journal of Virology, 2017)",
  "key": {"[1]": {"molecular_target": "T1, PKD (PKD1) (Homo sapiens, UniProt Q15139)", "T1 construct": "gene PRKD1", "experiment": "in vitro kinase assay with purified recombinant kinase; also pS916 inhibition in PANC1 and HeLa cells", "assay_type": "biochemical"}, "[2]": {"molecular_target": "Axl(h) (Homo sapiens, UniProt P30530)", "experiment": "biochemical", "set-up": "in vitro kinase selectivity panel, protein and lipid kinases, single concentration, ATP at Km", "conditions": "ATP at Km", "method": "(§1) CRT0066101 was described previously ([48]) and was purchased for this study from Tocris, with a purity of 99.9%. CRT0066101 (XX-209) and compound XX-050 were synthesized as previously described ([68]). CRT0066051 (Y-095) was also synthesized as previously described ([69]). […] CRT0066101 can also be obtained in larger quantities from Ximbio. Inhibitors were tested in in vitro PKD kinase assays and cellular assays on PANC1 cells as previously described ([48]). The selectivity of the three PKD inhibitors was determined against a panel of protein and lipid kinases by Eurofins and the MRC PPU International Centre for Kinase Profiling (http://www.kinase-screen.mrc.ac.uk), respectively. Each inhibitor was tested at a single concentration of 1 μM and at an ATP concentration equivalent to the Km for each kinase. Having shown that HRV infection appears to activate PKD, we went on to explore the influence of chemical inhibitors of PKD on HRV replication. The compound CRT0066101 is a specific and potent PKD inhibitor that has been used in studies exploring its potential as an anticancer target ([48], [51]). This inhibitor has a 50% inhibitory concentration (IC50) of 1 nM against purified PKD in biochemical assays and a 50% effective concentration (EC50) of 1 μM in a cell-based assay (Table 1). We pretreated HeLa cells with increasing concentrations of the drug for 1 h followed by infection with HRV16. Viral replication was subsequently measured at 6 hpi by quantitative real-time PCR (qRT-PCR) (Fig. 2A) and by Western blotting using an antibody against the viral nonstructural protein 2C (Fig. 2B). […] Furthermore, we tested two novel and structurally different PKD inhibitors (CRT0066051 and XX-050) (Table 1) and confirmed that they too inhibited HRV 2C expression although with different potencies (Fig. 2D). Kinase selectivity profiling of all three PKD inhibitors was performed against a panel of protein and lipid kinases at a drug concentration of 1 μM and at an ATP concentration equivalent to the Km of each kinase (see Table S1 in the supplemental material). […] Since PKD is known to be involved in regulating the architecture of the Golgi apparatus, we confirmed the pharmacodynamic effect of these inhibitors by demon"}, "[3]": {"molecular_target": "DGKZ (Homo sapiens, UniProt Q13574)", "experiment": "biochemical", "set-up": "in vitro kinase selectivity panel, protein and lipid kinases, single concentration, ATP at Km", "conditions": "ATP at Km", "method": "as §1"}, "[4]": {"molecular_target": "EGFR(L861Q)(h) (Homo sapiens, UniProt P00533, L861Q)", "sequence (P00533 whole entry L861Q)": "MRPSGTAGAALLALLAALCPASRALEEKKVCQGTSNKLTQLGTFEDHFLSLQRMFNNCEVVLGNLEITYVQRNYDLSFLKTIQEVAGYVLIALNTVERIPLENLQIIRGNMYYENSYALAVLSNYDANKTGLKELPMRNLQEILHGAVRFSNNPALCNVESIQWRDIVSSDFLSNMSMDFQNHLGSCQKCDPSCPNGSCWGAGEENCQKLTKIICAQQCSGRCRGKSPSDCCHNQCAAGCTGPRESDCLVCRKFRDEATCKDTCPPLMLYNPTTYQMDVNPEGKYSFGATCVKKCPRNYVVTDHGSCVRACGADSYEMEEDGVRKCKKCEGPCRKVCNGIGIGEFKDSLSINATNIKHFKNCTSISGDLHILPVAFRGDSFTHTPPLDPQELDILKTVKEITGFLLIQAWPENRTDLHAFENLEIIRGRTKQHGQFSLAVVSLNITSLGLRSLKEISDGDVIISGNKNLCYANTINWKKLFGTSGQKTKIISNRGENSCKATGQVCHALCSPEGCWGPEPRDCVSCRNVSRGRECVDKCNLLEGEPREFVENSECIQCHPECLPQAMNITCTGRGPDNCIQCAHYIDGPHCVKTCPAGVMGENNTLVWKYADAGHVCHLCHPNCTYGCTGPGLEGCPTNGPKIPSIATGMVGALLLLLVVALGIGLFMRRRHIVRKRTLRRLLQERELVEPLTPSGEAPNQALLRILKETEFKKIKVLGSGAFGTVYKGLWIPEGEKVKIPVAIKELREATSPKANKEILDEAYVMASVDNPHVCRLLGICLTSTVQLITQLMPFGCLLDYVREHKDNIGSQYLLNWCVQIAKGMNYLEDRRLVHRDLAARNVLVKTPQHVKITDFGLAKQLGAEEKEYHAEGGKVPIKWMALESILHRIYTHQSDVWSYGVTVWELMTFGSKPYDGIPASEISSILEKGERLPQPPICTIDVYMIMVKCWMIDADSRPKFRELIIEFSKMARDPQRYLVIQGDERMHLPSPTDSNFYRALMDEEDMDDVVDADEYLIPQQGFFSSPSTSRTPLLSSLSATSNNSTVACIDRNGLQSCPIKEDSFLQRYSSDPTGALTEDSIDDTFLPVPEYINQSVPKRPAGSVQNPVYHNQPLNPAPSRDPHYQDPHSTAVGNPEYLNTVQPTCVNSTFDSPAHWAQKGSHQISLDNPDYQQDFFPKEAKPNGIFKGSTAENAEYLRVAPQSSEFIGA", "experiment": "biochemical", "set-up": "in vitro kinase selectivity panel, protein and lipid kinases, single concentration, ATP at Km", "conditions": "ATP at Km", "method": "as §1"}, "[5]": {"molecular_target": "EphA2(h) (Homo sapiens, UniProt P29317)", "experiment": "biochemical", "set-up": "in vitro kinase selectivity panel, protein and lipid kinases, single concentration, ATP at Km", "conditions": "ATP at Km", "method": "as §1"}, "[6]": {"molecular_target": "T2, FAK(h) (Homo sapiens, UniProt Q05397)", "T2 construct": "gene PTK2", "experiment": "biochemical", "set-up": "in vitro kinase selectivity panel, protein and lipid kinases, single concentration, ATP at Km", "conditions": "ATP at Km", "method": "as §1"}, "[7]": {"molecular_target": "FGFR1(h) (Homo sapiens, UniProt P11362)", "experiment": "biochemical", "set-up": "in vitro kinase selectivity panel, protein and lipid kinases, single concentration, ATP at Km", "conditions": "ATP at Km", "method": "as §1"}, "[8]": {"molecular_target": "HIPK2(h) (Homo sapiens, UniProt Q9H2X6)", "sequence (Q9H2X6 whole entry)": "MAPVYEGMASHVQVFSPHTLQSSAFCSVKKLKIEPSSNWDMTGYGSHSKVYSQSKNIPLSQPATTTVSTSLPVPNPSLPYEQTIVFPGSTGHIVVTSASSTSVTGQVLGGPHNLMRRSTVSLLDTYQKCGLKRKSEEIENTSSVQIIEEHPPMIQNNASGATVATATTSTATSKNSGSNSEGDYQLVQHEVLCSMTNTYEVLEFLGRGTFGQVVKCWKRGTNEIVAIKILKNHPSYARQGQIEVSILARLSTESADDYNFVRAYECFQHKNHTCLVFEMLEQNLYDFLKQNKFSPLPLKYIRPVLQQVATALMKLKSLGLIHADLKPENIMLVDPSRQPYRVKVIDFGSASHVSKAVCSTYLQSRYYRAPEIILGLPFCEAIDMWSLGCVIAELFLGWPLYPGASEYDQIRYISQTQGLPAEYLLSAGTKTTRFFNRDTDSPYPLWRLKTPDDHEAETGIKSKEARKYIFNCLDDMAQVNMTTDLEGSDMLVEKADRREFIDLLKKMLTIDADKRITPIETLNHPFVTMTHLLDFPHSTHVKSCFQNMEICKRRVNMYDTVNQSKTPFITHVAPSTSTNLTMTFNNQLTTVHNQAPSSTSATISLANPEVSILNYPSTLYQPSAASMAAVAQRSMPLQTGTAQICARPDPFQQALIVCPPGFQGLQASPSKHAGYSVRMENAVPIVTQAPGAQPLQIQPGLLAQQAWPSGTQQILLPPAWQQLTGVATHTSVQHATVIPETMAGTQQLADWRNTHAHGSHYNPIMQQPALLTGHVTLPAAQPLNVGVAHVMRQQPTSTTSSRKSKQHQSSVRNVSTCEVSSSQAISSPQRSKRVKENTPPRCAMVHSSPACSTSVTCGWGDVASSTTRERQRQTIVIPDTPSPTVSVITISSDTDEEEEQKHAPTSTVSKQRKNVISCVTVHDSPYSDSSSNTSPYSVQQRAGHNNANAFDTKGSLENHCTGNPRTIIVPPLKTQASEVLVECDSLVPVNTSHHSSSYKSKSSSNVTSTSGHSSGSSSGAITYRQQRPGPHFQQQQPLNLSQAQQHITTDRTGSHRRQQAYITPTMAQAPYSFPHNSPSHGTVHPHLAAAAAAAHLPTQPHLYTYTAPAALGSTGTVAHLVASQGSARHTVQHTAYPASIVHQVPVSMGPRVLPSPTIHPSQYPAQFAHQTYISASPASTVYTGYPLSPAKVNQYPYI", "experiment": "biochemical", "set-up": "in vitro kinase selectivity panel, protein and lipid kinases, single concentration, ATP at Km", "conditions": "ATP at Km", "method": "as §1"}, "[9]": {"molecular_target": "HIPK3(h) (Homo sapiens, UniProt Q9H422)", "experiment": "biochemical", "set-up": "in vitro kinase selectivity panel, protein and lipid kinases, single concentration, ATP at Km", "conditions": "ATP at Km", "method": "as §1"}, "[10]": {"molecular_target": "Hck(h) (Homo sapiens, UniProt P08631)", "sequence (P08631 whole entry)": "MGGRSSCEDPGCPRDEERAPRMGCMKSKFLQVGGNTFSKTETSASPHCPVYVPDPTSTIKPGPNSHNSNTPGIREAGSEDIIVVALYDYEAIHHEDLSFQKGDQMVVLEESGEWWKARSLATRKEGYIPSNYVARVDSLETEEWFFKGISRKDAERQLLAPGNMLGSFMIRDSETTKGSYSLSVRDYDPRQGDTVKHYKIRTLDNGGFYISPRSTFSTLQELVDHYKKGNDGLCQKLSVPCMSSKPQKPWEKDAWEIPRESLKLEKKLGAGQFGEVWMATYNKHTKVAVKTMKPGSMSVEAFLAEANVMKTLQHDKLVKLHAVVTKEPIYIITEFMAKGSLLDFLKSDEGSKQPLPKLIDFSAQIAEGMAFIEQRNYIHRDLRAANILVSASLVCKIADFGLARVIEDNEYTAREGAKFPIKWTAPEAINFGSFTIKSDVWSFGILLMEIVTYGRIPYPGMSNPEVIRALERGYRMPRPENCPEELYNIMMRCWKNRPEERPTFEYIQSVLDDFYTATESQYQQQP", "experiment": "biochemical", "set-up": "in vitro kinase selectivity panel, protein and lipid kinases, single concentration, ATP at Km", "conditions": "ATP at Km", "method": "as §1"}, "[11]": {"molecular_target": "T3, MST2(h) (Homo sapiens, UniProt Q13188)", "T3 construct": "gene STK3", "experiment": "biochemical", "set-up": "in vitro kinase selectivity panel, protein and lipid kinases, single concentration, ATP at Km", "conditions": "ATP at Km", "method": "as §1"}, "[12]": {"molecular_target": "T4, Mer(h) (Homo sapiens, UniProt Q12866)", "T4 construct": "gene MERTK", "experiment": "biochemical", "set-up": "in vitro kinase selectivity panel, protein and lipid kinases, single concentration, ATP at Km", "conditions": "ATP at Km", "method": "as §1"}, "[13]": {"molecular_target": "Met(h) (Homo sapiens, UniProt P08581)", "sequence (P08581 whole entry)": "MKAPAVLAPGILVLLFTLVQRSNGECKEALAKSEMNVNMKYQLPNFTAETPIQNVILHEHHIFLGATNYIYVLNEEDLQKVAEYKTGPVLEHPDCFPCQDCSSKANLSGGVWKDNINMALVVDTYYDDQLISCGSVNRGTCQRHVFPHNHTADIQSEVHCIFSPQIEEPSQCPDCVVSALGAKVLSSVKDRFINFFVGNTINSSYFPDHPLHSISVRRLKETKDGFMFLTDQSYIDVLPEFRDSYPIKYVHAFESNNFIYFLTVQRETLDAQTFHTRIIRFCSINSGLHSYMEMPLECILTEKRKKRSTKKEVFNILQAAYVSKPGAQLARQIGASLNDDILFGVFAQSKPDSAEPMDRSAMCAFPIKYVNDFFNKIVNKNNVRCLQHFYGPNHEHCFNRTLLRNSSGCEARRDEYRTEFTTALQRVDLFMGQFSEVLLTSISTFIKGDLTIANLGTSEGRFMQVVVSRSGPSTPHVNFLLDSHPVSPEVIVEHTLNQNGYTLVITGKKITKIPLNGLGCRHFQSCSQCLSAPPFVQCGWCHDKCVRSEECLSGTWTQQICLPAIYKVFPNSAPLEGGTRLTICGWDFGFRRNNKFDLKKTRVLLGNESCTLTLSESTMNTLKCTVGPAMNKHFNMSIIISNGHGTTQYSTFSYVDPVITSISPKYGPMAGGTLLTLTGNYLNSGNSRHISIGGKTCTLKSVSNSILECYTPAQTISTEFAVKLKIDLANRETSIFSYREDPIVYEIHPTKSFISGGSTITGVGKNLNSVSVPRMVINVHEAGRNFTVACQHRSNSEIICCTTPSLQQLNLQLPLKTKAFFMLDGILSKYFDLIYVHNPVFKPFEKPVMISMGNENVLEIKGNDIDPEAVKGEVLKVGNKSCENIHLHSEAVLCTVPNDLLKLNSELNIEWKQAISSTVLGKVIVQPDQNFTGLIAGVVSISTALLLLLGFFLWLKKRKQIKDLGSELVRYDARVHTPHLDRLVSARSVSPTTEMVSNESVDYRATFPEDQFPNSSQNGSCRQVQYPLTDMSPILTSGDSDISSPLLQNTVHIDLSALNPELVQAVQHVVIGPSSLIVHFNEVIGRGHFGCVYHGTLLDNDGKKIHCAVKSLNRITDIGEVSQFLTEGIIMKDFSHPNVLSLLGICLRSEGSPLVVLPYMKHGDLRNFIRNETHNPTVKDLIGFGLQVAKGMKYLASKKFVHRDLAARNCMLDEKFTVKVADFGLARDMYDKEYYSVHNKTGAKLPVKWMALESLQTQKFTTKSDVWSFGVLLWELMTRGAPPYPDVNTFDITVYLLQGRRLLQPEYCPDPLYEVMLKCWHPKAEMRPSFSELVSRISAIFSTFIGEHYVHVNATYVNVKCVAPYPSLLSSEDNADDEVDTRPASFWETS", "experiment": "biochemical", "set-up": "in vitro kinase selectivity panel, protein and lipid kinases, single concentration, ATP at Km", "conditions": "ATP at Km", "method": "as §1"}, "[14]": {"molecular_target": "T5, PIK4B (Homo sapiens, UniProt Q9UBF8)", "T5 construct": "gene PI4KB", "experiment": "biochemical", "set-up": "in vitro kinase selectivity panel, protein and lipid kinases, single concentration, ATP at Km", "conditions": "ATP at Km", "method": "as §1"}, "[15]": {"molecular_target": "T6, PKD2(h) (Homo sapiens, UniProt Q9BZL6)", "T6 construct": "gene PRKD2", "experiment": "biochemical", "set-up": "in vitro kinase selectivity panel, protein and lipid kinases, single concentration, ATP at Km", "conditions": "ATP at Km", "method": "as §1"}, "[16]": {"molecular_target": "T7, Ros(h) (Homo sapiens, UniProt P08922)", "T7 construct": "gene ROS1", "experiment": "biochemical", "set-up": "in vitro kinase selectivity panel, protein and lipid kinases, single concentration, ATP at Km", "conditions": "ATP at Km", "method": "as §1"}, "[17]": {"molecular_target": "T8, Tie2 (h) (Homo sapiens, UniProt Q02763)", "T8 construct": "gene TEK", "experiment": "biochemical", "set-up": "in vitro kinase selectivity panel, protein and lipid kinases, single concentration, ATP at Km", "conditions": "ATP at Km", "method": "as §1"}, "[18]": {"molecular_target": "T9, cKit(V560G)(h) (Homo sapiens, UniProt P10721, V560G)", "T9 construct": "gene KIT", "experiment": "biochemical", "set-up": "in vitro kinase selectivity panel, protein and lipid kinases, single concentration, ATP at Km", "conditions": "ATP at Km", "method": "as §1"}},
  "data": [
    {"smiles": "CC[C@@H](N)CNc1ccnc(-c2cc(-c3cnn(C)c3)ccc2O)n1", "note": "[CRT0066101]", "values": [
      {"measurement": "IC50", "setting": "[1]", "value": 1, "unit": "nM"},
      {"measurement": "inhibition at 1 µM", "setting": "[2]", "value": 39, "unit": "%"},
      {"measurement": "inhibition at 1 µM", "setting": "[3]", "value": -1, "unit": "%"},
      {"measurement": "inhibition at 1 µM", "setting": "[4]", "value": 10, "unit": "%"},
      {"measurement": "inhibition at 1 µM", "setting": "[5]", "value": 2, "unit": "%"},
      {"measurement": "inhibition at 1 µM", "setting": "[6]", "value": -11, "unit": "%"},
      {"measurement": "inhibition at 1 µM", "setting": "[7]", "value": -30, "unit": "%"},
      {"measurement": "inhibition at 1 µM", "setting": "[8]", "value": 55, "unit": "%"},
      {"measurement": "inhibition at 1 µM", "setting": "[9]", "value": 14, "unit": "%"},
      {"measurement": "inhibition at 1 µM", "setting": "[10]", "value": 4, "unit": "%"},
      {"measurement": "inhibition at 1 µM", "setting": "[11]", "value": 20, "unit": "%"},
      {"measurement": "inhibition at 1 µM", "setting": "[12]", "value": 66, "unit": "%"},
      {"measurement": "inhibition at 1 µM", "setting": "[13]", "value": 12, "unit": "%"},
      {"measurement": "inhibition at 1 µM", "setting": "[14]", "value": 33, "unit": "%"},
      {"measurement": "inhibition at 1 µM", "setting": "[15]", "value": 96, "unit": "%"},
      {"measurement": "inhibition at 1 µM", "setting": "[16]", "value": -13, "unit": "%"},
      {"measurement": "inhibition at 1 µM", "setting": "[17]", "value": 4, "unit": "%"},
      {"measurement": "inhibition at 1 µM", "setting": "[18]", "value": 24, "unit": "%"}
    ]}
  ]
}
